Earlier results, collected in patent US8709164B2, “Methods and compositions for dislodging debris particles from a substrate” (University of South Carolina, priority 2010, dated 2014).

Experiments:
[1] = test system: D. farinae; conditions: among 15 chemicals
[2] = test system: D. pteronyssinus; conditions: washing soak with addition of 0.03% benzyl benzoate

Row | SMILES | ability to kill D. farinae (words, order of potency) [1] | mites survived out of 10,000 [2]
1 | Cl[C@H]1[C@H](Cl)[C@@H](Cl)[C@@H](Cl)[C@H](Cl)[C@H]1Cl [Lindane] | most effective | –
2 | O=C(OCc1ccccc1)c1ccccc1 [benzyl benzoate] | most effective | approximately 50
3 | CCN(CC)c1nc(C)cc(OP(=S)(OC)OC)n1 [pirimiphosmethyl] | most effective | –
